These results are taken from patent US12435128B2, “Method for predicting therapeutic effect of LSD1 inhibitor based on expression of INSM1” (TAIHO PHARMACEUTICAL CO., LTD., priority 2017, dated 2025).

One test has as its system NCI-H1417 cells. Briefly: Cell-growth inhibitory effects of LSD1 inhibitor on sensitive strain NCI-H1417. Particulars: 10 days. It is filed as cell-based, human. Here is the method: (§1) As a medium, 10% FBS-containing RPMI1640 was used. Cell lines were seeded in a 96-well flat-bottom microplate in an amount of 120 μL, and a well containing 160 μL of medium alone was also prepared for background measurement. […] After culture, the microplate was allowed to stand at room temperature for 30 minutes. To 160 μL of the cell culture solution or the medium containing no cells, 140 μL of CellTiter-Glo 2.0 Assay (Promega) was added. After the microplate was allowed to stand at room temperature for 10 minutes, the luminescence intensity of viable cells in each well was measured using a microplate reader (PerkinElmer, EnSpire). The IC35 of each drug was obtained in the same manner as above.

For test [1], the system named is NCI-H146 cells (human small-cell lung cancer cell lines). Briefly: Cell-growth inhibition test: NCI-H146 cells. In kind it is cell-based. As to conditions: NCI-H146 cells; read-out: IC50 (nM), Cell-Growth Inhibition Test: NCI-H146 Cells. Here is the method:
Under the following conditions, an in vitro cell-growth inhibition test was performed with respect to HEL cells (human acute myelocytic leukemia cell lines), NCI-H1417 cells (human small-cell lung cancer cell lines), and NCI-H146 cells (human small-cell lung cancer cell lines).
The cells with the Example compound or with dimethylsulfoxide alone were cultured at 37° C. in a 5% carbon-dioxide-containing incubator for 5 days (HEL cells) or 10 days (NCI-H1417 cells and NCI-H146 cells). After culture, the plate was allowed to stand at room temperature for 30 minutes, and 100 μL of the supernatant was removed from each well to leave 100 μL of the cell culture solution. To each well containing the remaining 100 μL of the cell culture solution, the same amount of CellTiter-Glo 2.0 Assay (Promega, Cat #: G9242) was added. The microplate was shaken with a plate mixer for 1 minute and then allowed to stand in a dark place for 10 minutes. Thereafter, the luminescence intensity of viable cells in each well was measured using a microplate reader (PerkinElmer, EnSpire). […] Cell growth rate(%)=T/C×100 • T: The luminescence intensity in a well to which the test compound was added (count per second) • C: The luminescence intensity in a well to which dimethylsulfoxide alone was added (count per second)

In test [2] the test system is NCI-H1417 cells (human small-cell lung cancer cell lines). The test is described as follows: Cell-growth inhibition test: NCI-H1417 cells. Particulars: read-out: IC50 (nM), Cell-Growth Inhibition Test: NCI-H1417 Cells. It is filed as cell-based.
The next test deals with DMS79 cells. The test is described as follows: Cell-growth inhibitory effects of LSD1 inhibitor on non-sensitive strain DMS79. It is filed as cell-based, human. As to conditions: 10 days. Here is the method:
as §1

Test [3] deals with HEL cells (human acute myelocytic leukemia cell lines). The test is described as follows: Cell-growth inhibition test: HEL cells. In kind it is cell-based. Particulars: read-out: IC50 (nM), Cell-Growth Inhibition Test: HEL Cells.
Test [4] relates to NCI-H146 cells (human small-cell lung cancer cell lines). The test is described as follows: Antitumor effect test using NCI-H146 cells subcutaneously implanted into mice (T/C %). It is filed as in vivo. As to conditions: NCI-H146 in BALB/cAJcl-nu/nu mice. Here is the method: To 5 mice in each group, a vehicle (0.5% hydroxymethylpropylcellulose containing 0.1 N HCL) or each Example compound was orally administered. […] The major axis and the minor axis of each tumor were measured twice a week with an electric caliper to calculate the tumor volume (TV). According to the tumor volumes thus obtained, a relative tumor volume (RTV) and a relative tumor volume change (T/C (%)) were calculated. The TV, RTV, and T/C (%) were calculated using the following equations. Tumor volume TV(mm^3)=(major axis, mm)×(minor axis, mm)×(minor axis, mm)/2 Relative tumor volume RTV=TV/(TV on the grouping day) T/C(%)=(average RTV of administration group)/(average RTV of vehicle administration group)×100.
The final measurement day was the day following the final administration day.

As usually defined, the IC50 is the concentration needed to halve the response being measured.

With `CCC(O)(CC)Cn1nnc2cc(-c3ccc(C(=O)N4[C@@H]5CC[C@H]4[C@@H](N)C5)cc3-c3ccc(C#N)c(F)c3)c(F)c(F)c21` (single isomer, unassigned) [Example 214], the growth inhibitory effects entry is listed as “showed growth inhibitory effects” in the test with NCI-H1417 cells and “did not show growth inhibitory effects” in the test with DMS79 cells. The values for the IC50 in test [1], in test [2] and in test [3] were 2.58 nM, 0.47 nM and 0.44 nM, respectively.
As for `CC(C)(O)Cn1nnc2cc(-c3ccc(CN4[C@@H]5CC[C@H]4[C@@H](N)C5)cc3-c3ccc(C#N)c(F)c3)c(F)c(F)c21.Cl.Cl` (single isomer, unassigned) [Example 285], the values for the growth inhibitory effects entry in the test with NCI-H1417 cells and in the test on DMS79 cells were “showed growth inhibitory effects” and “did not show growth inhibitory effects”, respectively.
As to `CC(C)(O)Cc1ccc(-c2ccc(C(=O)N3[C@@H]4CC[C@H]3C[C@@H](N)C4)cc2-c2ccc(C#N)c(F)c2)c(F)c1` [Example 41, 4-[5-[(3-endo)-3-amino-8-azabicyclo[3.2.1]octane-8-carbonyl]-2-[2-fluoro-4-(2-hydroxy-2-methyl-propyl)phenyl]phenyl]-2-fluoro-benzonitrile], the values for the growth inhibitory effects entry in the test on NCI-H1417 cells and with DMS79 cells were “showed growth inhibitory effects” and “did not show growth inhibitory effects”, respectively. For the same compound, the “T/C (%)” value in test [4] (25 mg/kg orally once a day, 21 consecutive days) is listed as 19%.
Consider `CC(C)(O)Cn1nnc2cc(-c3ccc(C(=O)N4[C@@H]5CC[C@H]4C[C@@H](N)C5)cc3-c3ccc(C#N)c(F)c3)c(F)c(F)c21` [Example 161, 5′-((3-endo)-3-amino-8-azabicyclo[3.2.1]octane-8-carbonyl)-2′-(6,7-difluoro-1-(2-hydroxy-2-methylpropyl)-1H-benzo[d][1,2,3]triazol-5-yl)-3-fluoro-[1,1′-biphenyl]-4-carbonitrile], for which the concentration for half-maximal inhibition (IC50) in test [3] was found to be 5.68 nM. Further, the “T/C (%)” value in test [4] (40 mg/kg orally once a day, 28 consecutive days) came out at 14%.
`N#Cc1ccc(-c2cc(C(=O)N3C4CCC3CC(N)C4)ccc2-c2cc3nnn(CC4(O)CCC4)c3c(C#N)c2F)cc1F` (stereo not drawn) [Example 266, 5-(5-((3-endo)-3-amino-8-azabicyclo[3.2.1]octane-8-carbonyl)-4′-cyano-3′-fluoro-[1,1′-biphenyl]-2-yl)-6-fluoro-1-((1-hydroxycyclobutyl)methyl)-1H-benzo[d][1,2,3]triazole-7-carbonitrile]: the IC50 in test [1] is 17.5 nM; in test [2] it was 1.85 nM; in test [3], 4.63 nM.
